Reference: patent US11332438B2, “Creatine prodrugs, compositions and methods of use thereof” (Ultragenyx Pharmaceutical Inc., priority 2017, dated 2022)

What was measured:
[1] = Repeat dosing study, d3-creatine levels in non-human primate (NHP) brain (FIG. 2, Table 7); assay type: in vivo; settings: 7 infusions q.d., all brain regions tested
Description: FIG. 2 is a graph of the data from a multi-dose study comparing d3-creatine and d3-creatinine levels in the brain of non-human primates, measured after a total of 7 infusions of compound 14 administered q.d. (once daily). Cr=d3-creatine; CRN=d3-creatinine.
Non-human primate (NHP) brains were dosed with Compound 8 (120 mg/kg) and Compound 14 (18 mg/kg) over a seven day period (i.v. infusion provide q.d.).

[2] = d3-Creatine and d3-creatinine concentration in CrT KO mice brain after IV bolus dose (FIGS. 3 and 4, Table 6); assay type: in vivo; settings: CrT KO mice, 10 mg/kg IV, FIG. 4
Description: The brain concentrations of d3-creatine and d3-creatinine was measured in CrT KO mice following 10 mg/kg single dose IV bolus dose of compound 14 and 15 (FIGS. 3 and 4). As shown by FIG. 3, brain d3-creatine concentration was higher following administration of compound 15 compared to compound 14. […] Without bound to any theory, the macrocyclic compound 15 prodrug reduces d3-creatine cyclization to d3-creatinine when compared to linear compound 14 prodrug.
The concentration of d3-creatine in CrT KO mice brain were also measured for other compounds disclosed in the present application as shown in Table 6. The concentrations of d3-creatine, d3-creatinine and creatine prodrugs are measured by LC-MS/MS. The brain sample is homogenized with 4× (weight to volume) of KPI 100 mM buffer containing anti-proteases and anti-phosphatases (if needed). 50 μl of brain homogenate is then de-proteinized using 4× volume/volume of a solution containing 80% acetonitrile and 20% water with bucetin, d5-Cr (internal standard). The plate is then spun at 4000 rpm, 10 minutes, 4° C. and samples are transferred to a new plate for bioanalysis. Each analyte in each sample was quantitated against a curve in matching biomatrix using an authentic standard.

[3] = In vivo IV dosing in CrT KO mice: prodrug, d3-Cr and d3-Crn in brain (Table 5); settings: IV 10 mg/kg, CrT KO mouse brain; BQL prodrug = 41.2 ng/mL
Description: A creatine prodrug is administered as an intravenous bolus injection to groups of three to six adult male CD1 mice at an appropriate creatine prodrug dose equivalent per kg body weight. Animals are conscious at the time of the experiment. Blood samples (0.3 mL) are obtained via a jugular vein cannula at intervals over 8 hours following IV dosing. Blood is processed into plasma, then the plasmais immediately frozen at −80° C. until analyzed by LC-MS/MS. Samples may also be taken form the CSF or other appropriate biological fluid. Brains were collected and flash frozen immediately in liquid nitrogen. Brains were homogenized in 100 mM KPI buffer with a cocktail of anti-proteases on the same day as the sample preparation required for LC-MS/MS analysis.
Several prodrugs with either free COOH group and ester linkage and macrocycles were selected for IV dosing in animal study to assess PK and d3-Cr release in brain in vivo. Prodrugs were IV dosed in CrT KO mice at 10, 15, or 25 mg/kg in animal studies. Mouse brain homogenates (MBH) were prepared from brains collected from mice after dosing. Levels of prodrug, d3-Cr and d3-Crn were quantified in brain and expressed in brain concentration (for macrocycle prodrugs) or AUC (for linear prodrugs) over time. Very few prodrugs were detected in MBH.

[4] = Chemical stability in simulated gastric fluid (SGF) without pepsin; assay type: physicochemical; settings: 50 μM prodrug
How it was run: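 Incubations used 50 μM compound at 37 °C in phosphate buffered saline, fasted simulated intestinal fluid without pancreatin, or fasted simulated gastric fluid without pepsin.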

[5] = Single-dose study in CrT KO mice: creatine and creatinine in plasma and brain over 8 h (FIG. 1); assay type: in vivo
Description: FIG. 1 is a graph of the data from a single-dose study comparing d3-creatine and d3-creatinine levels in the plasma and brain of CrT KO mice treated with compound 15 and measured over 8 h. Cr=d3-creatine; CRN=d3-creatinine.
The plasma and brain concentrations of creatine and creatinine was measured in CrT KO mice upon treatment with compound 15 (FIG. 1). […] The ratio of [creatine]Brain.[creatine]Plasma can be an useful parameter for a successful clinical development of creatine prodrugs for treating CTD and related conditions.

[6] = system: Phenocell CrT deficient neurons (iPSC-derived human neurons); assay: Creatine prodrug uptake and d3-creatine release in Phenocell CrT deficient neurons (Table 4B); assay type: cell-based; settings: 2 hours
Description: Human neurons were obtained by differentiation of iPSC-derived neural stem cells for 14 days. The iPSCs were obtained from Phenocell Corporation. Neurons were cultured and differentiated to Day 10 and then frozen in liquid nitrogen. Neurons were thawed and replated at 1×10^6 per well of viable cells on poly-ornithine/laminin coated plates in 2 ml medium per well. Differentiation in complete Neurol medium with 2 ng/ml FGF2 was carried out for 4 additional days with a complete medium change (90% of medium) on Day 12. Activin A (20 ng/ml final conc.) was spiked into the cultures on Day 11 and Day 13. […] In parallel, compounds were incubated in medium alone to assess chemical stability of parent prodrug and metabolites. At the end of the 2 hour incubation, supernatants were collected and frozen at −80 C. Neurons in 6 well plates were washed gently 3× with HBSS and frozen at −80° C. Cell lysates were obtained by addition of 130 μl/well 10 mM Tris pH 7.4 with complete Mini protease inhibitors and scraping of wells. Plates were kept on ice during processing. Lysates were homogenized by hand briefly with a green pestle in 1.5 ml centrifuge tubes and then vortexed at high speed for 5 seconds. Lysates were centrifuged at 13,000 g, 10 minutes, 4 C and supernatants (cytosol fraction) were transferred in a new tube. A crash solution constituted of 80% acetonitrile and 20% water with bucetin, d5-Cr (internal standard) was added at 4:1 volume to volume to 50 ul of all samples for a total volume of 250 μL. Then plate was spun at 4000 rpm, 10 minutes, […] Samples were transferred to a new plate and frozen at −80 C prior to analysis by LC-MS/MS (Table 4B).

[7] = Liver microsome stability, mouse; assay type: in vitro ADME; settings: liver microsomes, pH 7.4, Table 2C, read-out: Microsome Stability Mouse t1/2
How it was run: (§1)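 Test compound incubated with mouse or human liver microsomes and NADPH in 0.1 M potassium phosphate, 1.0 mM EDTA, pH 7.4, with a 60-min no-NADPH control. Samples quenched with ACN containing internal standard at 0, 5, 10, 20, 30 and 60 min, then analysed by LC/MS.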

[8] = Liver microsome stability, human; assay type: in vitro ADME; settings: liver microsomes, pH 7.4, Table 2C, read-out: Microsome Stability Human t1/2
How it was run: as §1

d3-creatine (d3-Cr) levels in NHP brain on repeat administration (in words) [1] | brain concentration of d3-creatinine, compound 14 versus compound 15 [2] | AUClast prodrug in the brain [3] | Chemical Stability SGF, no enzyme % T0 at 2 hours at 37 °C. ([4]; Table 2A) | creatine levels compared to creatinine (CRN) levels [5] | brain creatine (Cr) concentration compared to plasma ([5]; measured over 8 h) | Prodrug concentration in the cell cytosol ([6]; Study No. 2, 100 μM) | d3-Creatine concentration in the cell cytosol ([6]; Study No. 2, 100 μM) | Prodrug concentration in the cell cytosol ([6]; Study No. 2, 500 μM) | half-life at 10 μM [7] | half-life at 10 μM [8] | Chemical Stability SGF, no enzyme % T0 at 2 hours at 37 °C. ([4]; Table 2C) | SMILES
dramatically increases | not significantly different | BQL | 80% | – | – | – | – | – | – | – | – | Cl.[2H]C([2H])([2H])N(CC(=O)OCCCCCCC)C(=N)NC(=O)CCCCCC [Compound 14]
– | not significantly different | – | – | higher than creatinine (CRN) levels | higher than the concentration in plasma | BLOQ | BLOQ | BLOQ | < 5 min | < 5 min | 97% | Cl.[2H]C([2H])([2H])N1CC(=O)OCCCCCCCCCCC(=O)NC1=N [Compound 15, 5-imino-4-trideuteriomethyl-1-oxa-4,6-diazacycloheptadecane-2,7-dione Hydrochloride]
